What was measured:
Assay in all cases: radiometric filter-binding kinase assay, Kinase HotSpot
Settings in all cases: compound 0.5 µM; ATP 10 µM
ABL2 (human) = ABL2 (human) (UniProt P42684)
TAOK1 (human) = TAOK1 (human) (UniProt Q7L7X3)
RAF1 (human) = RAF1 (human) (UniProt P04049)
CLK4 (human) = CLK4 (human) (UniProt Q9HAZ1)
MAP4K2 (human) = MAP4K2 (human) (UniProt Q12851)
NEK11 (human) = NEK11 (human) (UniProt Q8NG66)
RPS6KA6 KD1 KD2 (human) = RPS6KA6 KD1 KD2 (human) (UniProt Q9UK32)
NUAK1 (human) = NUAK1 (human) (UniProt O60285)
ZAP70 (human) = ZAP70 (human) (UniProt P43403)
PRKACA (human) = PRKACA (human) (UniProt P17612)
PKN1 (human) = PKN1 (human) (UniProt Q16512)
FGFR1 (human) = FGFR1 (human) (UniProt P11362)
STK10 (human) = STK10 (human) (UniProt O94804)
EPHB1 (human) = EPHB1 (human) (UniProt P54762)
TXK (human) = TXK (human) (UniProt P42681)
LIMK1 (human) = LIMK1 (human) (UniProt P53667)
INSR (human) = INSR (human) (UniProt P06213)
NTRK2 (human) = NTRK2 (human) (UniProt Q16620)
PRKD1 (human) = PRKD1 (human) (UniProt Q15139)
FGFR4 (human) = FGFR4 (human) (UniProt P22455)
CDK5 CDK5R1 p35 (human) = CDK5 CDK5R1 p35 (human) (UniProt Q00535+Q15078)
AKT2 (human) = AKT2 (human) (UniProt P31751)
ABL1 (human) = ABL1 (human) (UniProt P00519)
CAMKK1 (human) = CAMKK1 (human) (UniProt Q8N5S9)
LRRK2 (human) = LRRK2 (human) (UniProt Q5S007)
PASK (human) = PASK (human) (UniProt Q96RG2)
CDK1 CCNB1 (human) = CDK1 CCNB1 (human) (UniProt P06493+P14635)
DYRK1A (human) = DYRK1A (human) (UniProt Q13627)
IGF1R (human) = IGF1R (human) (UniProt P08069)
FLT1 (human) = FLT1 (human) (UniProt P17948)
MAPK10 (human) = MAPK10 (human) (UniProt P53779)
MAPK14 (human) = MAPK14 (human) (UniProt Q16539)
MARK3 (human) = MARK3 (human) (UniProt P27448)
TNK2 (human) = TNK2 (human) (UniProt Q07912)
PAK7 (human) = PAK7 (human) (UniProt Q9P286)
RPS6KB1 (human) = RPS6KB1 (human) (UniProt P23443)
TAOK3 (human) = TAOK3 (human) (UniProt Q9H2K8)
EPHA7 (human) = EPHA7 (human) (UniProt Q15375)
RPS6KA1 KD1 KD2 (human) = RPS6KA1 KD1 KD2 (human) (UniProt Q15418)
TSSK1B (human) = TSSK1B (human) (UniProt Q9BXA7)
STK16 (human) = STK16 (human) (UniProt O75716)
CSNK2A2 (human) = CSNK2A2 (human) (UniProt P19784)

Sequence of NTRK2 (human) (Q16620 whole entry, looked up): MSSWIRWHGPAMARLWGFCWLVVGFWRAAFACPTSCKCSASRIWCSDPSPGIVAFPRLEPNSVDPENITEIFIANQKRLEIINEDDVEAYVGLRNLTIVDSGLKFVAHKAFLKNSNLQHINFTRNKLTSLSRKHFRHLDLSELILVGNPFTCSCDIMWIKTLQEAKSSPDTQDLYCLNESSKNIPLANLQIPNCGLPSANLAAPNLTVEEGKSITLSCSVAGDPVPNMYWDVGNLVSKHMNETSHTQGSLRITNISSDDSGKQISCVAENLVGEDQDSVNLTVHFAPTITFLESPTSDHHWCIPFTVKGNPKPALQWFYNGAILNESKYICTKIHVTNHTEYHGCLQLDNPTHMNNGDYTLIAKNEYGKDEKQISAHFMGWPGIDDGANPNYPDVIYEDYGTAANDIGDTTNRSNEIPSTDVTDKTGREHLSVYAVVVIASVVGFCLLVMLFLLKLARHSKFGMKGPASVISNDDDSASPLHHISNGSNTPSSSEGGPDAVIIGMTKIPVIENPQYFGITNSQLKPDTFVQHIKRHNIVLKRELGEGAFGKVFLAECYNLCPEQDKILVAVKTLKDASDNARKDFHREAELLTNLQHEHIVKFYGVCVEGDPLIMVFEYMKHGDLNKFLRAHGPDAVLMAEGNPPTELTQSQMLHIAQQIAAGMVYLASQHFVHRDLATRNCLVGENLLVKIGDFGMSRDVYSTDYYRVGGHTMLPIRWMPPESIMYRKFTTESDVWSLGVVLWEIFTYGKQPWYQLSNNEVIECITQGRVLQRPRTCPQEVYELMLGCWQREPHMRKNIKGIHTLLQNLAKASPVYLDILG
Sequence of NEK11 (human) (Q8NG66 whole entry, looked up): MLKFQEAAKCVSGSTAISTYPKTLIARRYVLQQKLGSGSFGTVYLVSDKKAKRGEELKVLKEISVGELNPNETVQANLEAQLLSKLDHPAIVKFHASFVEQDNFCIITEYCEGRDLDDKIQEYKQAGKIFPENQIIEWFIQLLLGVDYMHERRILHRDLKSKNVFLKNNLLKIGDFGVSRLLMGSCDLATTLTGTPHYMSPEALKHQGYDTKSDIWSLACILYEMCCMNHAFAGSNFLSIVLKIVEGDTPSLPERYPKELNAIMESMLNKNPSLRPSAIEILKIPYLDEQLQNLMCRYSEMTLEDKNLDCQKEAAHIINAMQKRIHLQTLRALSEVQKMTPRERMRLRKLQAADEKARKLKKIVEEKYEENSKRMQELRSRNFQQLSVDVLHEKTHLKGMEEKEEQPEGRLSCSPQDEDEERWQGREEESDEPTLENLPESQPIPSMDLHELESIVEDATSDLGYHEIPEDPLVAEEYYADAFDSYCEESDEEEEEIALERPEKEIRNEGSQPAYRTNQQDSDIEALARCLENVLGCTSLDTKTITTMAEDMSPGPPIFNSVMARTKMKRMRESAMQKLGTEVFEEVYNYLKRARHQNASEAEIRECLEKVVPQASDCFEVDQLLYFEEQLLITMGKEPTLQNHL
Sequence of CDK1 CCNB1 (human) (P06493 whole entry, looked up): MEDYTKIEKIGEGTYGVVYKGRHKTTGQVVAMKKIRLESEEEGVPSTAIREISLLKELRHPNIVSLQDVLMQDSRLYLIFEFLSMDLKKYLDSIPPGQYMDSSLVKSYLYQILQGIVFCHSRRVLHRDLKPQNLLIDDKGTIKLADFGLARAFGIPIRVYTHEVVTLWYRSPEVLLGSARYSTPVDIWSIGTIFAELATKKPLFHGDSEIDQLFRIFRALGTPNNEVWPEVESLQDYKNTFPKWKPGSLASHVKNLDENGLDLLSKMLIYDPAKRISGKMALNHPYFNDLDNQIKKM
Sequence of CDK1 CCNB1 (human) (P14635 whole entry, looked up): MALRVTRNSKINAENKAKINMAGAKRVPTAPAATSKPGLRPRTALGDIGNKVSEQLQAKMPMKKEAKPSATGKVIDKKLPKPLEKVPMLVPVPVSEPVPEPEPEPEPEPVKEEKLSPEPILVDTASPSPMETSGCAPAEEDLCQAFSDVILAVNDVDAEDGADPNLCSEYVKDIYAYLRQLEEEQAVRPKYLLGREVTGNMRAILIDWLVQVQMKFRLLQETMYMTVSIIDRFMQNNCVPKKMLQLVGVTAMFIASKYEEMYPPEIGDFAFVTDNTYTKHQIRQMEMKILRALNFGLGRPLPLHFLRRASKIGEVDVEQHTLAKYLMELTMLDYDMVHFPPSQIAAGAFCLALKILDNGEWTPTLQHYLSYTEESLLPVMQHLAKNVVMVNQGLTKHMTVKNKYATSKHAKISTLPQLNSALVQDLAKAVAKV
Sequence of FLT1 (human) (P17948 whole entry, looked up): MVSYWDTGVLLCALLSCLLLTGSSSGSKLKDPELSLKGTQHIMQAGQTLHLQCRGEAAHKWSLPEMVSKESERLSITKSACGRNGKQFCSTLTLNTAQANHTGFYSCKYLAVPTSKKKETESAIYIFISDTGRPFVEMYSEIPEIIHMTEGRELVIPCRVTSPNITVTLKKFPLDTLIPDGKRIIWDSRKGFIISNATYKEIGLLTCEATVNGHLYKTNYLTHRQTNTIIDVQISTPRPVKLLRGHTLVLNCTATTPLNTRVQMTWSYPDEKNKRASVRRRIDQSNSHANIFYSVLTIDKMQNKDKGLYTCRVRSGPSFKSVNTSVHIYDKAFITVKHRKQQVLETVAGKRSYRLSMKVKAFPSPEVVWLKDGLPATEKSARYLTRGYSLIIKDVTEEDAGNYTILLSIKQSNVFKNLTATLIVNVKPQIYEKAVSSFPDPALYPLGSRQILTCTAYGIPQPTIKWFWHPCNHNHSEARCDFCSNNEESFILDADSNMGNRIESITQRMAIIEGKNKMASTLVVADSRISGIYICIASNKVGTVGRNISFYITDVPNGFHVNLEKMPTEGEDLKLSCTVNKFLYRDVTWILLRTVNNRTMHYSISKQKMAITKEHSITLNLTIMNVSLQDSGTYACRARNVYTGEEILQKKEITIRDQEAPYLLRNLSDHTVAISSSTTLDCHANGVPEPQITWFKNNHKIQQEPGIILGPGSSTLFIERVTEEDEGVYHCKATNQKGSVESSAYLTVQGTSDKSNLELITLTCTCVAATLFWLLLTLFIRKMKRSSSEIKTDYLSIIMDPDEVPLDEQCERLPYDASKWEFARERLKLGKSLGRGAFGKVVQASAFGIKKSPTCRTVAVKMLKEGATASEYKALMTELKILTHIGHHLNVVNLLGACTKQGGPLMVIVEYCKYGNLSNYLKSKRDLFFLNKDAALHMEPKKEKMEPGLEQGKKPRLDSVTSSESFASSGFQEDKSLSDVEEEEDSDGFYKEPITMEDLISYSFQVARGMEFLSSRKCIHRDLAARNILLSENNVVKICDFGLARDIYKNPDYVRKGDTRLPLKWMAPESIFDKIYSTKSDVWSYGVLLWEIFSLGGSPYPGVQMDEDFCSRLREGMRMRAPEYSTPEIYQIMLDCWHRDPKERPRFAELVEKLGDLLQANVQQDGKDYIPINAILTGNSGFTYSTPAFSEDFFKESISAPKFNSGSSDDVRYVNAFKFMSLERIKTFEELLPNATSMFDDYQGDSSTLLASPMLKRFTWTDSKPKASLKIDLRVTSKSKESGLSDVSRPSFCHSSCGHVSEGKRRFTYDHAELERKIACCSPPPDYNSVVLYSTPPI
Sequence of ABL2 (human) (P42684 whole entry, looked up): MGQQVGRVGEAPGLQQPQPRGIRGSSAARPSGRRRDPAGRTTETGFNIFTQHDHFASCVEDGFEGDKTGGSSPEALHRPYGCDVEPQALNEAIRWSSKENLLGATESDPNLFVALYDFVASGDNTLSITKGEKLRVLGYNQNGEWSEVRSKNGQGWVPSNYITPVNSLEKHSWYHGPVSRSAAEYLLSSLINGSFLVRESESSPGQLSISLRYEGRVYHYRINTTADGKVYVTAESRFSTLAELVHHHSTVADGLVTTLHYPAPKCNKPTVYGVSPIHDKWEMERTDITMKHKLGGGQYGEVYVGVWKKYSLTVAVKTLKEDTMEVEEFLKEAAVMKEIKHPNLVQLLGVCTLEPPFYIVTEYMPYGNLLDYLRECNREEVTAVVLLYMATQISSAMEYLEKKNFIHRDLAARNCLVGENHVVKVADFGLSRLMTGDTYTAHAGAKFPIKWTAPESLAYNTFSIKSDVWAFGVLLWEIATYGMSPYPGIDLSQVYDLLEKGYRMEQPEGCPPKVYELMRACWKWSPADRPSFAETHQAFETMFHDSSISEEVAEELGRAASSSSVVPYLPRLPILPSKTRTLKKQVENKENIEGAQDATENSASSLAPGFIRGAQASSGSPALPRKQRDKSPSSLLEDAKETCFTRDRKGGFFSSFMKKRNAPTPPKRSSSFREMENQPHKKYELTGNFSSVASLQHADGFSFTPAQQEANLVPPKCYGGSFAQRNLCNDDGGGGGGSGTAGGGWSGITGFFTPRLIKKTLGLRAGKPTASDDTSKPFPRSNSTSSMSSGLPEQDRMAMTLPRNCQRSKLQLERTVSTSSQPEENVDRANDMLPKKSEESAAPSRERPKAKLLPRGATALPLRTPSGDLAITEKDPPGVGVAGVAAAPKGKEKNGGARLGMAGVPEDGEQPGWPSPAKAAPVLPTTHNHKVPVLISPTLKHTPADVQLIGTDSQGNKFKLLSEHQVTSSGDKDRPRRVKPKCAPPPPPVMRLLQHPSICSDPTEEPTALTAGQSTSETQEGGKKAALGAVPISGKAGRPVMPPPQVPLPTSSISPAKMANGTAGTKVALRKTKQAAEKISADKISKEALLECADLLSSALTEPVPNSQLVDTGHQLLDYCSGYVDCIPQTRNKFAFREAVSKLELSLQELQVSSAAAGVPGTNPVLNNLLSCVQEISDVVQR
Sequence of STK16 (human) (O75716 whole entry, looked up): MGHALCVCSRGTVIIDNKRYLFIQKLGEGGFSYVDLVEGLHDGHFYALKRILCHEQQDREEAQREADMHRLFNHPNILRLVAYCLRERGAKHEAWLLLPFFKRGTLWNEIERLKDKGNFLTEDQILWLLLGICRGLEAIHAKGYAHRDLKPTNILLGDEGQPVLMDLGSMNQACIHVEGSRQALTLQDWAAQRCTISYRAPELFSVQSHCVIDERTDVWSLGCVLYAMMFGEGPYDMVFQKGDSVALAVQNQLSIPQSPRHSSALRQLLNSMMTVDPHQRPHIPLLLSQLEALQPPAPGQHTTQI

## O=C(O)c1ccc2c3c1cccc3c(=O)n1c3ccccc3nc21
ABL2 (human)
  residual activity: 100%
TAOK1 (human)
  residual activity: 93.3%
RAF1 (human)
  residual activity: 97.5%
CLK4 (human)
  residual activity: 82.8%
MAP4K2 (human)
  residual activity: 38%
NEK11 (human)
  residual activity: 83%
RPS6KA6 KD1 KD2 (human)
  residual activity: 101%
NUAK1 (human)
  residual activity: 41.3%
ZAP70 (human)
  residual activity: 119%
PRKACA (human)
  residual activity: 99.4%
PKN1 (human)
  residual activity: 99.5%
FGFR1 (human)
  residual activity: 84.7%
STK10 (human)
  residual activity: 88.6%
EPHB1 (human)
  residual activity: 97.5%
TXK (human)
  residual activity: 102%
LIMK1 (human)
  residual activity: 92.7%
INSR (human)
  residual activity: 91.5%
NTRK2 (human)
  residual activity: 98.4%
PRKD1 (human)
  residual activity: 86.2%
FGFR4 (human)
  residual activity: 88.6%
CDK5 CDK5R1 p35 (human)
  residual activity: 88%
AKT2 (human)
  residual activity: 101%
ABL1 (human)
  residual activity: 99.3%
CAMKK1 (human)
  residual activity: 45.8%
LRRK2 (human)
  residual activity: 70.1%
PASK (human)
  residual activity: 106%
CDK1 CCNB1 (human)
  residual activity: 65%
DYRK1A (human)
  residual activity: 55.5%
IGF1R (human)
  residual activity: 100%
FLT1 (human)
  residual activity: 86.5%
MAPK10 (human)
  residual activity: 108%
MAPK14 (human)
  residual activity: 99%
MARK3 (human)
  residual activity: 82.6%
TNK2 (human)
  residual activity: 101%
PAK7 (human)
  residual activity: 98.7%
RPS6KB1 (human)
  residual activity: 95.9%
TAOK3 (human)
  residual activity: 93.1%
EPHA7 (human)
  residual activity: 103%
RPS6KA1 KD1 KD2 (human)
  residual activity: 101%
TSSK1B (human)
  residual activity: 112%
STK16 (human)
  residual activity: 106%
CSNK2A2 (human)
  residual activity: 13.3%

## N#CCCc1ccc2c(c1)-c1[nH]c3ccc([N+](=O)[O-])cc3c1CC(=O)N2
ABL2 (human)
  residual activity: 49.8%
TAOK1 (human)
  residual activity: 73.1%
RAF1 (human)
  residual activity: 104%
CLK4 (human)
  residual activity: 77.1%
MAP4K2 (human)
  residual activity: 14%
NEK11 (human)
  residual activity: 101%
RPS6KA6 KD1 KD2 (human)
  residual activity: 13.4%
NUAK1 (human)
  residual activity: 14.1%
ZAP70 (human)
  residual activity: 106%
PRKACA (human)
  residual activity: 87.6%
PKN1 (human)
  residual activity: 78%
FGFR1 (human)
  residual activity: 91.9%
STK10 (human)
  residual activity: 74.1%
EPHB1 (human)
  residual activity: 99.1%
TXK (human)
  residual activity: 67.6%
LIMK1 (human)
  residual activity: 99.9%
INSR (human)
  residual activity: 94.1%
NTRK2 (human)
  residual activity: 86.4%
PRKD1 (human)
  residual activity: 87.5%
FGFR4 (human)
  residual activity: 89.1%
CDK5 CDK5R1 p35 (human)
  residual activity: 2.6%
AKT2 (human)
  residual activity: 100%
ABL1 (human)
  residual activity: 47.8%
CAMKK1 (human)
  residual activity: 86.7%
LRRK2 (human)
  residual activity: 73.8%
PASK (human)
  residual activity: 96.9%
CDK1 CCNB1 (human)
  residual activity: 9.89%
DYRK1A (human)
  residual activity: 85.9%
IGF1R (human)
  residual activity: 92.2%
FLT1 (human)
  residual activity: 99.7%
MAPK10 (human)
  residual activity: 93.3%
MAPK14 (human)
  residual activity: 91.8%
MARK3 (human)
  residual activity: 67.3%
TNK2 (human)
  residual activity: 75.4%
PAK7 (human)
  residual activity: 60.3%
RPS6KB1 (human)
  residual activity: 98%
TAOK3 (human)
  residual activity: 66%
EPHA7 (human)
  residual activity: 95.3%
RPS6KA1 KD1 KD2 (human)
  residual activity: 59.9%
TSSK1B (human)
  residual activity: 59.2%
STK16 (human)
  residual activity: 87%
CSNK2A2 (human)
  residual activity: 92.9%

## CCOc1cc2ncnc(Nc3cccc(Br)c3)c2cc1OCC
ABL2 (human)
  residual activity: 52.1%
TAOK1 (human)
  residual activity: 99.9%
RAF1 (human)
  residual activity: 91.6%
CLK4 (human)
  residual activity: 83.1%
MAP4K2 (human)
  residual activity: 91.5%
NEK11 (human)
  residual activity: 103%
RPS6KA6 KD1 KD2 (human)
  residual activity: 93.3%
NUAK1 (human)
  residual activity: 94%
ZAP70 (human)
  residual activity: 105%
PRKACA (human)
  residual activity: 98.9%
PKN1 (human)
  residual activity: 100%
FGFR1 (human)
  residual activity: 90.9%
STK10 (human)
  residual activity: 30.5%
EPHB1 (human)
  residual activity: 73.8%
TXK (human)
  residual activity: 80.2%
LIMK1 (human)
  residual activity: 101%
INSR (human)
  residual activity: 98.7%
NTRK2 (human)
  residual activity: 105%
PRKD1 (human)
  residual activity: 95.4%
FGFR4 (human)
  residual activity: 87.1%
CDK5 CDK5R1 p35 (human)
  residual activity: 99.2%
AKT2 (human)
  residual activity: 87.6%
ABL1 (human)
  residual activity: 64.3%
CAMKK1 (human)
  residual activity: 88.2%
LRRK2 (human)
  residual activity: 78.7%
PASK (human)
  residual activity: 92.3%
CDK1 CCNB1 (human)
  residual activity: 80.8%
DYRK1A (human)
  residual activity: 98.7%
IGF1R (human)
  residual activity: 101%
FLT1 (human)
  residual activity: 85%
MAPK10 (human)
  residual activity: 101%
MAPK14 (human)
  residual activity: 87.5%
MARK3 (human)
  residual activity: 98.8%
TNK2 (human)
  residual activity: 58.8%
PAK7 (human)
  residual activity: 99.1%
RPS6KB1 (human)
  residual activity: 95.8%
TAOK3 (human)
  residual activity: 96.2%
EPHA7 (human)
  residual activity: 58.5%
RPS6KA1 KD1 KD2 (human)
  residual activity: 82.8%
TSSK1B (human)
  residual activity: 92.9%
STK16 (human)
  residual activity: 98.4%
CSNK2A2 (human)
  residual activity: 93.8%

## O=C(c1ccccc1)c1ccc(N2CCOCC2)cc1O
ABL2 (human)
  residual activity: 105%
TAOK1 (human)
  residual activity: 100%
RAF1 (human)
  residual activity: 95.9%
CLK4 (human)
  residual activity: 101%
MAP4K2 (human)
  residual activity: 116%
NEK11 (human)
  residual activity: 97.7%
RPS6KA6 KD1 KD2 (human)
  residual activity: 101%
NUAK1 (human)
  residual activity: 94.9%
ZAP70 (human)
  residual activity: 95.9%
PRKACA (human)
  residual activity: 98.3%
PKN1 (human)
  residual activity: 104%
FGFR1 (human)
  residual activity: 95.9%
STK10 (human)
  residual activity: 97.9%
EPHB1 (human)
  residual activity: 104%
TXK (human)
  residual activity: 98.5%
LIMK1 (human)
  residual activity: 83.9%
INSR (human)
  residual activity: 92.9%
NTRK2 (human)
  residual activity: 92.7%
PRKD1 (human)
  residual activity: 102%
FGFR4 (human)
  residual activity: 106%
CDK5 CDK5R1 p35 (human)
  residual activity: 97%
AKT2 (human)
  residual activity: 97.9%
ABL1 (human)
  residual activity: 102%
CAMKK1 (human)
  residual activity: 107%
LRRK2 (human)
  residual activity: 95.4%
PASK (human)
  residual activity: 94.3%
CDK1 CCNB1 (human)
  residual activity: 92.3%
DYRK1A (human)
  residual activity: 101%
IGF1R (human)
  residual activity: 106%
FLT1 (human)
  residual activity: 97.4%
MAPK10 (human)
  residual activity: 75.3%
MAPK14 (human)
  residual activity: 96.3%
MARK3 (human)
  residual activity: 105%
TNK2 (human)
  residual activity: 104%
PAK7 (human)
  residual activity: 99.2%
RPS6KB1 (human)
  residual activity: 95.3%
TAOK3 (human)
  residual activity: 99%
EPHA7 (human)
  residual activity: 98.4%
RPS6KA1 KD1 KD2 (human)
  residual activity: 96.2%
TSSK1B (human)
  residual activity: 107%
STK16 (human)
  residual activity: 104%
CSNK2A2 (human)
  residual activity: 96.8%
